According to DBAASP:
In brackets after ≈: the same amount, converted by molar mass. Each block holds one molecule with its values, some of them ahead of it.

What was measured:
Experiment in all cases: ≥ marks a high value that may be exact or a test limit, other limits are often not marked, values filed in µg/mL are converted to µM
[1] = test system: Staphylococcus aureus NCTC 10788
[2] = test system: Candida albicans NCPF 1467
[3] = test system: Staphylococcus aureus ATCC 25923
[4] = test system: Salmonella enterica subsp. enterica serovar Typhi ATCC 6399
[5] = test system: Pseudomonas aeruginosa ATCC 9027
[6] = test system: Escherichia coli ATCC 25922
Streptococcus agalactiae = test system: Streptococcus agalactiae
[7] = test system: Bacillus subtilis ATCC 6633
[8] = test system: Staphylococcus aureus CVCC 1882
[9] = test system: Bacillus pumilus CVCC 709
[10] = test system: Escherichia coli CVCC 1570
[11] = test system: Bacillus subtilis CVCC 717
[12] = test system: Micrococcus luteus CVCC 1600
[13] = test system: Candida albicans ATCC 20032
[14] = test system: Escherichia coli ATCC 11775
Botrytis cinerea = test system: Botrytis cinerea
[15] = test system: Staphylococcus aureus ATCC 12600
[16] = test system: Candida albicans ATCC 10231
[17] = test system: Staphylococcus epidermidis
Proteus mirabilis = test system: Proteus mirabilis
Shigella dysenteriae = test system: Shigella dysenteriae
Staphylococcus aureus = test system: Staphylococcus aureus
Pseudomonas aeruginosa = test system: Pseudomonas aeruginosa
Escherichia coli = test system: Escherichia coli
Klebsiella pneumoniae = test system: Klebsiella pneumoniae
Bacillus subtilis = test system: Bacillus subtilis
Micrococcus luteus = test system: Micrococcus luteus
Salmonella typhimurium = test system: Salmonella typhimurium
[18] = test system: Staphylococcus aureus USA 300 LAC
[19] = test system: Klebsiella pneumoniae ATCC 13883

- MIC [1]: 16 µM (≈ 31.6 µg/mL)
- MIC [2]: ≥ 120 µM
SMILES: CC[C@H](C)[C@H](NC(=O)[C@H](C)NC(=O)CNC(=O)[C@H](CC(C)C)NC(=O)[C@@H](N)Cc1ccccc1)C(=O)N[C@@H](C)C(=O)N[C@@H](C)C(=O)N[C@@H](C)C(=O)N[C@@H](CC(C)C)C(=O)N1CCC[C@H]1C(=O)N[C@@H](Cc1cnc[nH]1)C(=O)N[C@H](C(=O)N[C@H](C(=O)N[C@@H](CC(N)=O)C(=O)N[C@@H](C)C(=O)N[C@H](C(=O)N[C@H](C(=O)N[C@@H](CC(N)=O)C(=O)N[C@@H](C)C(=O)N[C@@H](CC(C)C)C(=O)O)[C@@H](C)O)C(C)C)[C@@H](C)CC)C(C)C [FLGAIAAALPHVINAVTNAL]

- MIC [3]: 10 µM (≈ 15 µg/mL)
- MIC [4]: 10 µM (≈ 15 µg/mL)
- MIC [5]: 10 µM (≈ 15 µg/mL)
- MIC [6]: 20 µM (≈ 29.9 µg/mL)
- MIC (Streptococcus agalactiae): 20 µM (≈ 29.9 µg/mL)
- MIC [7]: 20 µM (≈ 29.9 µg/mL)
SMILES: CC[C@H](C)[C@H](NC(=O)[C@H](CO)NC(=O)[C@H](CCCCN)NC(=O)[C@H](C)NC(=O)[C@H](C)NC(=O)[C@H](CC(N)=O)NC(=O)[C@H](Cc1c[nH]c2ccccc12)NC(=O)[C@H](CC(C)C)NC(=O)[C@@H](NC(=O)[C@H](CO)NC(=O)[C@H](CC(C)C)NC(=O)[C@@H](N)Cc1ccccc1)[C@@H](C)O)C(=O)N[C@@H](Cc1ccccc1)C(N)=O [FLSTLWNAAKSIF]

- MIC [8]: 23.3 µM (≈ 62 µg/mL)
- MIC [9]: 9 µM (≈ 24 µg/mL)
- MIC [10]: 16.7 µM (≈ 44.5 µg/mL)
- MIC [11]: 13.3 µM (≈ 35.4 µg/mL)
- MIC [12]: 8 µM (≈ 21.3 µg/mL)
SMILES: CC[C@H](C)[C@H](NC(=O)[C@H](CO)NC(=O)[C@H](CCCCN)NC(=O)[C@H](CCCN=C(N)N)NC(=O)[C@H](C)NC(=O)[C@H](C)NC(=O)CN)C(=O)N[C@@H](CCCN=C(N)N)C(=O)N[C@@H](CC(C)C)C(=O)N[C@@H](Cc1cnc[nH]1)C(=O)N[C@@H](CCCN=C(N)N)C(=O)N[C@@H](CC(C)C)C(=O)N[C@@H](Cc1ccc(O)cc1)C(=O)N[C@H](C(=O)N[C@@H](Cc1c[nH]c2ccccc12)C(=O)N[C@@H](CCCCN)C(=O)N[C@@H](C)C(=O)N[C@H](C(=O)N[C@H](C(=O)N[C@@H](Cc1ccc(O)cc1)C(=O)N[C@H](C(=O)N[C@@H](CCCN=C(N)N)C(=O)O)[C@@H](C)O)[C@@H](C)CC)[C@@H](C)O)[C@@H](C)O [GAARKSIRLHRLYTWKATIYTR]

- MIC [3]: 30.9 µM (≈ 75 µg/mL)
- MIC [13]: ≥ 41.2 µM
- MIC [6]: > 41.2 µM
- MIC [7]: ≥ 41.2 µM
SMILES: CC[C@H](C)[C@H](NC(=O)CN)C(=O)NCC(=O)NCC(=O)N[C@@H](C)C(=O)N[C@@H](CC(C)C)C(=O)N[C@@H](CC(C)C)C(=O)N[C@@H](CO)C(=O)N[C@H](C(=O)NCC(=O)N[C@@H](CCCCN)C(=O)N[C@@H](CO)C(=O)N[C@@H](C)C(=O)N[C@@H](CC(C)C)C(=O)N[C@@H](CCCCN)C(=O)NCC(=O)N[C@@H](CC(C)C)C(=O)N[C@H](C(=O)N[C@@H](CCCCN)C(=O)NCC(=O)N[C@@H](CC(C)C)C(=O)N[C@@H](C)C(=O)N[C@@H](CCC(=O)O)C(=O)N[C@@H](Cc1cnc[nH]1)C(=O)N[C@@H](Cc1ccccc1)C(N)=O)[C@@H](C)O)C(C)C [GIGGALLSVGKSALKGLTKGLAEHF]

- MIC [14]: ≥ 78.7 µM
- MIC (Botrytis cinerea): 0.394 µM (≈ 0.5 µg/mL)
- MIC [15]: 19.7 µM (≈ 25 µg/mL)
- MIC [16]: 15.7 µM (≈ 20 µg/mL)
SMILES: CC[C@H](C)[C@H](N)C(=O)N[C@@H](CC(C)C)C(=O)NCC(=O)N[C@H](C(=O)N[C@H](C(=O)N[C@H](C(=O)N[C@@H](CO)C(=O)N[C@@H](CC(C)C)C(=O)N[C@@H](CC(C)C)C(=O)N[C@@H](CCCCN)C(=O)N[C@@H](CO)C(=O)N[C@@H](CC(C)C)C(N)=O)[C@@H](C)O)[C@@H](C)CC)[C@@H](C)CC [ILGIITSLLKSL]

- MIC [3]: > 49.8 µM
- MIC [13]: ≥ 49.8 µM
- MIC [6]: > 49.8 µM
- MIC [7]: ≥ 49.8 µM
SMILES: CC[C@H](C)[C@H](N)C(=O)N[C@@H](CC(C)C)C(=O)NCC(=O)N[C@@H](CC(C)C)C(=O)N[C@H](C(=O)N[C@H](C(=O)N[C@@H](CO)C(=O)N[C@H](C(=O)N[C@H](C(=O)NCC(=O)N[C@@H](CC(N)=O)C(=O)N[C@H](C(=O)N[C@@H](CC(C)C)C(=O)NCC(=O)NCC(=O)N[C@@H](CC(C)C)C(=O)N[C@@H](CC(C)C)C(=O)N[C@@H](CCCCN)C(=O)N[C@@H](CC(N)=O)C(=O)N[C@@H](CC(C)C)C(N)=O)C(C)C)[C@@H](C)CC)[C@@H](C)O)[C@@H](C)CC)C(C)C [ILGLVISTIGNVLGGLLKNL]

- MIC [14]: ≥ 200 µM
- MIC (Botrytis cinerea): ≥ 200 µM
- MIC [15]: ≥ 200 µM
- MIC [16]: > 200 µM
SMILES: CSCC[C@H](NC(=O)[C@@H](NC(=O)[C@H](C)NC(=O)[C@@H]1CCCN1C(=O)[C@H](CO)NC(=O)[C@@H](N)CC(C)C)C(C)C)C(=O)N[C@@H](C)C(=O)N[C@@H](CO)C(=O)N[C@@H](CC(C)C)C(=O)N[C@@H](C)C(N)=O [LSPAVMASLA]

- MIC [17]: 2.17 µM (≈ 3.1 µg/mL)
- MIC (Proteus mirabilis): ≥ 140 µM
- MIC (Shigella dysenteriae): 17.5 µM (≈ 25 µg/mL)
- MIC (Staphylococcus aureus): 1.12 µM (≈ 1.6 µg/mL)
- MIC (Pseudomonas aeruginosa): 69.8 µM (≈ 100 µg/mL)
- MIC (Escherichia coli): 8.73 µM (≈ 12.5 µg/mL)
- MIC (Klebsiella pneumoniae): 17.5 µM (≈ 25 µg/mL)
- MIC (Bacillus subtilis): 4.4 µM (≈ 6.3 µg/mL)
- MIC (Micrococcus luteus): 1.12 µM (≈ 1.6 µg/mL)
- MIC (Salmonella typhimurium): ≥ 69.8 µM
SMILES: CC(C)C[C@H](NC(=O)[C@@H](NC(=O)[C@H](CCCCN)NC(=O)[C@H](CO)NC(=O)[C@H](C)NC(=O)[C@@H](NC(=O)[C@H](CCCCN)NC(=O)[C@H](Cc1ccccc1)NC(=O)[C@H](CC(C)C)NC(=O)[C@H](C)NC(=O)CNC(=O)[C@H](CC(C)C)NC(=O)[C@@H](N)Cc1c[nH]c2ccccc12)C(C)C)C(C)C)C(=O)O [WLGALFKVASKVL]

- MIC [18]: 6.2 µM (≈ 7.89 µg/mL)
- MIC [19]: ≥ 50 µM
- MIC [6]: 25 µM (≈ 31.8 µg/mL)
SMILES: CC[C@H](C)[C@H](NC(=O)[C@H](CCCCN)NC(=O)[C@H](CCCN=C(N)N)NC(=O)[C@H](CC(C)C)NC(=O)[C@H](Cc1c[nH]c2ccccc12)NC(=O)[C@@H](N)Cc1c[nH]c2ccccc12)C(=O)N[C@@H](Cc1c[nH]c2ccccc12)C(=O)N[C@@H](Cc1c[nH]c2ccccc12)C(N)=O [WWLRKIWW]

- MIC [8]: ≥ 133 µM
- MIC [9]: 13.3 µM (≈ 28.6 µg/mL)
- MIC [10]: 23.3 µM (≈ 50 µg/mL)
- MIC [11]: 16.7 µM (≈ 35.9 µg/mL)
- MIC [12]: 13.3 µM (≈ 28.6 µg/mL)
SMILES: CC(C)[C@H](NC(=O)[C@@H]1CCCN1C(=O)[C@@H]1CCCN1C(=O)[C@@H](NC(=O)[C@@H](N)Cc1ccc(O)cc1)C(C)C)C(=O)N[C@@H](CCC(N)=O)C(=O)N[C@@H](CCCCN)C(=O)N1CCC[C@H]1C(=O)N[C@@H](Cc1cnc[nH]1)C(=O)N1CCC[C@H]1C(=O)N[C@@H](CC(N)=O)C(=O)NCC(=O)N1CCC[C@H]1C(=O)N[C@@H](CCCCN)C(=O)N[C@@H](Cc1ccccc1)C(=O)N1CCC[C@H]1C(=O)N[C@H](C(=O)N[C@@H](Cc1ccccc1)C(=O)N1CCC[C@H]1C(=O)O)[C@@H](C)O [YVPPVQKPHPNGPKFPTFP]
